Test results from patent US20190106460A1, “BINDING INHIBITORS OF THE BETA. TRANSDUCIN REPEAT-CONTAINING PROTEIN” (priority 2011, published 2019).
Non-standard residues stand in square brackets, D forms with d. Residues, ends and D or L forms follow the SMILES beside them. Groups on a side chain read outwards from the residue. *: point of attachment. X3 = CC(C)CCC[C@@H](C)[C@H]1CCC2C3CC=C4C[C@@H](OC(=O)*)CC[C@]4(C)C3CC[C@@]21C; Benzenesulfonyl(4-OMe) = COc1ccc(S(=O)(=O)*)cc1; Phe(3-F) = N[C@@H](Cc1cccc(F)c1)C(=O)O; Ahx = NCCCCCC(=O)O

System: β-catenin in MCF7 cells
Assay: β-Catenin in cell western
Format: cell-based
Method: β-Catenin in Cell Western
Plating of the MCF7 cells onto 96 well plates—this step is carried out 1 day before the treatment of the cells to allow the cells to adhere well to the tissue culture plastic. MCF7 cells to be used for seeding should be less than 100% confluent in a 10 cm dish. Add 3 ml of RT trypsin/EDTA to the cells. Incubate at 37° C./5% CO2 for a few minutes until the cells easily come away from the plastic by gentle swirling. Add 7 ml of media to the cells. Wash the bottom of the plate gently with the 10 ml to ensure all cells are captured and dispense into a 15 ml falcon. Add 1001l of the cells to 1001l of Trypan blue and add to haemocytometer to count the number of cells present. Make up approx 10 ml of cells in media at 2×10^4 cells/1001l (well) with fresh media. Add this correct seeding density to a 10 cm dish. Dispense 1001l of cells/well into a 96 well plate without using the outside wells. Incubate at 37° C./5% CO2 overnight
Treatment of MCF7 cells with compound of interest (COI) and controls—Put OptiMEM into 37° C. water bath to warm. Add 4 ul of 50 mM compound X for testing to eppendorf—this is tube 1. Add 2 al DMSO to 6 tubes marked tube 2-7. Take 21 al of 50 mM (COI) and add to 2 al of DMSO in tube 2 and pipette up and down to mix. Take 21 al from tube 2 and add to 2 μl DMSO in next tube and mix. […]

Structure (SMILES): COc1ccc(S(=O)(=O)N[C@H](CC(=O)O)C(=O)N[C@@H](CCC(=O)O)C(=O)NCC(=O)N[C@@H](Cc2cccc(F)c2)C(=O)N[C@@H](Cc2c[nH]c3ccccc23)C(=O)N[C@@H](CCC(=O)O)C(=O)NCCCCCC(=O)N[C@@H](CCCCNC(=O)CCCCCNC(=O)O[C@H]2CC[C@@]3(C)C(=CCC4C3CC[C@@]3(C)C4CC[C@@H]3[C@H](C)CCCC(C)C)C2)C(N)=O)cc1 (stereo partly shown) [UBP036, 4-(MeO)PhSO2-dEGF(3F)WE-Ahx-K(Ahx-Chol)-NH2] ({Benzenesulfonyl(4-OMe)}-[dD]EG[Phe(3-F)]WE[Ahx]K([Ahx-X3])-NH2)
- accumulation of β-catenin, in cell western: accumulation of β-catenin
